Laboratory results: US20090274739A1, “METHODS AND COMPOSITIONS FOR TREATING NEOINTIMAL HYPERPLASIA” (THE TRUSTEES OF COLUMBIA UNIVERSITY IN THE CITY OF NEW YORK, priority 2006, published 2009)
Several values for one entry are separate records, joined by “and”; a condition that tells them apart may be missing. Identical values can stand only once. Entries after “also recorded” stand apart in the source; their conditions may differ.

Assays:
[1] = system: primary murine aortic vascular smooth muscle cells (VSMC); assay: VSMC proliferation assay (Coulter counter / MTS-based); type: cell-based, mouse
Description: The methods used in the above experiments were as follows: Cell Culture and VSMC Proliferation Assays. Primary VSMC were isolated from aortic explants of wildtype, ob/ob, or db/db mice in the method of Roque et al. 30. VSMC were routinely cultured in Dulbecco's Modified Eagle's Medium (DMEM) containing either 4500 or 1250 mg/L glucose supplemented with 20% FBS at 37° C. in a 5% CO2 incubator. […] Cells were plated at 200,000 cells/ well of a 6 well dish and subsequently serum starved for 72 hr in DMEM media supplemented with 0.1 % FBS. Leptin dissolved in PBS was added directly to serum-free media at concentrations of 1, 10, or 100 ng/ml with […] LY294002 or U0126, and cells were grown for another 72 hr before harvesting. VSMC proliferation was measured by counting samples using a Coulter counter or using the Cell Titre 96 Aqueous One Solution Cell Proliferation Assay kit (Promega). Cell viability was assessed by Trypan Blue staining.
Proliferation of VSMCs: VSMC proliferation was measured by counting triplicate samples using a Coulter counter or using the CellTitier 96 Aqueous One Solution Cell Proliferation Assay (Promega, Madison, Wis.) kit per manufacturer's instructions. Cell viability was assessed via staining with Trypan Blue.
Murine VSMCs (2×10^4 cells/well) were incubated in a 6-well tissue culture plate for 72 hours in DMEM containing 0.1% FBS with or without insulin (10 or 100 nmol/L) and with 0, 1, 10, or 100 nmol/L rapamycin. Triplicate samples were counted using a Coulter counter and were normalized as percentage of the control group. Cell viability was checked via Trypan blue staining.
Murine VSMCs, seeded 2×10^4 cells/well in a 6-well plate, were starved for 72 hrs in DMEM with 0.1% FBS. Rapamycin, leptin, or insulin in different concentrations indicated in the figure were incubated with VSMCs in DMEM with 0.1% of FBS for 72 hrs. Triplicate samples were counted via a Coulter counter. Cell viability was checked via Trypan blue staining. […] In panel C, VSMCs were exposed to U0126, a specific MEK1/2 inhibitor, or LY294002, a specific PI3K inhibitor.
Primary VSMC were isolated from aortic explants of WT, ob/ob, or db/db mice (46). VSMC proliferation was determined using the Cell Titre Aqueous One Solution Proliferation Assay (Promega, Madison, Wis.). Migration to PDGF-BB was assessed in a modified Boyden chamber assay (47).

[2] = system: MAPK (p44/p42, ERK1/2) phosphorylation; assay: Immunoblot of MAPK (ERK1/2, p44/p42) phosphorylation in VSMC; type: cell-based, mouse
Description: (§1) Western blot analysis: The cells were plated in a 100-mm culture dish in DMEM supplemented with 20% FBS for 24 h at 37° C., followed by serum starvation for 48 h. Cells were then treated with different reagents for 30 min. Cells were subsequently lysed on ice for 30 min in RIPA buffer [150 mM NaCl, 100 mM Tris (pH 8.0), 1% Triton X-100, 1% deoxycholic acid, 0.1% SDS, 5 mM EDTA, and 10 mM NaF] supplemented with 1 mM sodium vanadate, 2 mM leupeptin, 2 mM aprotinin, 1 mM phenylmethylsulfonyl fluoride (PMSF), 1 mM DTT, and 2 mM pepstatin A. After centrifugation at 14,000 rpm for 30 min, the supernatant was harvested as the total cellular protein extract, and stored at −70° C. The protein concentration was determined using Bio-Rad protein assay reagent (Richmond, Calif.). The total cellular protein extracts were separated by SDS-polyacrylamide gel electrophoresis (SDS-PAGE) and transferred to nitrocellulose membrane in 20 mM Tris-HCl (pH 8.0) containing 150 mM glycine and 20% (v/v) methanol.
(§2) Membranes were blocked with 5% nonfat dried milk in PBS containing 0.05% Tween 20 and incubated with antibodies against phospho-(Thr^202/Tyr^204) p42/p44^MAPK and p42/p44^MAPK, phospho-Akt([…]) and anti-Akt, p70^S6K, 4EBP-1. Blots were washed three times in PBS buffer, followed by incubation with the appropriate HRP-linked IgG. The specific proteins in the blots were visualized using an enhanced chemiluminescence reagent (NEN, Boston, Mass.).
(§3) VSMC were plated on 100-mm dishes, serum starved for 72 h in DMEM containing 0.1% FBS, and stimulated with 0.6 or 6 nM (10 or 100 ng/ml) leptin. Extracts were prepared by brief sonication in HKM buffer [40 mM HEPES-KOH (pH 7.6), 7.5 mM MgCl2, 0.5 mM DTT] or, in the case of Akt phosphorylation studies, by lysing cells on ice for 30 min in RIPA buffer. 70 μg of protein per sample were subjected to immunoblotting by standards protocols. Imaging and densitometry were performed on an Odyssey infrared system (Li-Cor, Lincoln, Neb.).

[3] = system: Akt phosphorylation; assay: Immunoblot of Akt phosphorylation in VSMC; type: cell-based, mouse; settings: Example 2; rapamycin; leptin 100 ng/ml
Description: as §1, §2, §3

[4] = system: murine femoral artery wire injury model (neointimal hyperplasia); assay: Femoral artery wire injury model, morphometry of neointimal formation; type: in vivo, mouse; parameters: Lumen / Media / Intima / TVA (total vessel area): unit not given here; settings: for decrease of neointimal formation compared to vehicle: absence of leptin; for I/M (intima:media ratio) / Intima / Lumen / Media / TVA (total vessel area): mean ± SD
Text: Animal Models and Drug Treatments. Wild type C57BL/6J background mice and mice deficient for leptin (C57BL/6J-Lepob; ob/ob) or the leptin receptor (C57BL/6J-m+/+Lepdb; db/db) were purchased from Charles Jackson Laboratories, Maine. Mice were obtained at ages 6-8 weeks old and average weight 15 g. Animals were fed standard rodent chow and tap water ad libitum. Procedures and animal care were approved by the Institutional Animal Care and Use Committee. Mice were subjected to femoral artery wire injury or sham injury described below 24 hr prior to starting pharmacological treatments. Sirolimus was administered by intraperitoneal injection once per day for 14 days as a suspension in 0.2% sodium carboxymethyl cellulose and 0.25% polysorbate-80; duplicate experiments were accomplished with 0.5% DMSO. Leptin or LY294002 was administered by intraperitoneal injection once per day for 14 days as a suspension in PBS. Plasma leptin levels were measured at baseline, 3, 6, and 10 hr after leptin injection using an ELISA assay (R&D). Leptin plus the vehicle used for both sirolimus and LY294002 was used as the control group for the treatment groups with sirolimus and LY294002. After the 2-week treatment, animals were processed for femoral artery morphometry.
Femoral Artery Injury Model. Endoluminal injury of bilateral femoral arteries was performed according to the method of Roque et al. with minor modification 27. […] Briefly, to denude and dilate femoral arteries, a 0.014″ angioplasty guidewire (Guidant) was passed endoluminally 3 times to the level of the aortic bifurcation. A sham protocol was performed where the arteries underwent dissection, clamping, and ligature without passage of the guidewire.
Computer-aided quantitative morphometry to measure luminal, medial, intimal, and vessel areas were performed as previously described 27 with minor modification. Mice were euthanized via CO2 asphyxiation prior to en bloc excision of hind limbs. Briefly, multiple segments of the common femoral artery at the level of injury were fixed in 10% Zinc Formalin, embedded in paraffin, sectioned at […] thickness, and subjected to Elastic-Van Gieson staining at a Columbia University Core Histology facility. In many cases, arteries underwent immunohistochemical staining for smooth muscle a-actin to highlight the media and neointima. Photomicrographs were captured on Adobe Photoshop 7.0 and transferred to Scion Image software for quantitative analysis. Specimens were analyzed by two independent operators blinded to the treatment groups. Microsoft Excel software was used to calculate the RNI values from I/M ratios in the absence and presence of pharmacological inhibitors, as detailed in the text.
Surgical Procedures: The mouse femoral artery wire injury model of was used with minor modifications (Roque M, et al., Arterioscler Thromb Vasc Biol, 2000, 20(2):335-42). Briefly, forty-two male mice were studied. Endoluminal injury to the common femoral artery was produced by either 3 passages of a 0.014″ diameter angioplasty guidewire (Guidant, Santa Clara, Calif.). […] While being viewed under a surgical microscope, a groin incision was made and the femoral artery was isolated and temporarily clamped distal to the inguinal ligament. An arteriotomy was performed and the guidewire was passed 3 times to the level of the aortic bifurcation. The artery was then ligated proximal to the arteriotomy. A sham protocol was carried out on the contralateral side where the arteries underwent dissection, temporary clamping, and ligature, without passage of the wire. The formation of the neointima was confirmed in this model as being comprised mainly of VSMCs through immunohistochemical staining of representative sections for α-smooth muscle actin via a commercial kit (Sigma).
For all treatment protocols, rapamycin was administered by intraperitoneal injection once per day, for 14 days, as a suspension in 0.2% sodium carboxymethyl cellulose and 0.25% polysorbate-80. […]

[5] = system: wire-injured femoral artery of hyperglycemic (STZ) mice; assay: Femoral artery wire injury in streptozotocin-induced hyperglycemic mice; type: in vivo, mouse
Description: For the studies carried out in hyperglycemic mice, animals received an intraperitoneal injection of 60 mg/kg/d for 5 days of streptozotocin (STZ) in 0.05 mol/L citrate buffer. Surgery was performed 3 days following the final injection. Blood glucose levels were measured prior to injury (representing baseline levels), at time of injury, at euthanasia, and as needed during insulin administration with the OneTouch SureStep® Blood glucose monitoring system (Lifescan, Inc., Milipitas, Calif.). Only animals with blood glucose concentrations >300 mg/dL were included in this study.
Insulin (12-26 U/kg) was administered via an intraperitoneal route twice per day, for 14 days, according to blood glucose measurements.
Morphometry: Mice were euthanized via CO2 asphyxiation and were perfused with 10% Zinc Formalin through the left ventricle at physiological pressure (100 mm Hg). Tissues were excised and fixed overnight in 10% Zinc Formalin, embedded in paraffin, and sectioned at 5 μm thickness. Multiple level sections were cut at 100 pm intervals. For morphometry, tissues were stained with elastic van Gieson stain. Using computer aided morphometry (Scion Image), luminal, medial, intimal, and vessel area, and the lengths of the internal and external elastic laminae were measured as previously described (Roque M, et al., Arterioscler Thromb Vasc Biol, 2000, 20(2):335-42) in a blinded manner. […]

[6] = wire injury + leptin 0.4 mg/kg, SRL 1 mg/kg/d i.p. 14 days
[7] = wire injury + leptin 0.4 mg/kg, SRL 4 mg/kg/d i.p. 14 days
[8] = wire injury + leptin 0.4 mg/kg, SRL 9 mg/kg/d i.p. 14 days
[9] = wire injury, SRL 1 mg/kg/d i.p. 14 days, no leptin
[10] = wire injury, SRL 4 mg/kg/d i.p. 14 days, no leptin
[11] = wire injury, SRL 9 mg/kg/d i.p. 14 days, no leptin

Molecule: N#CC(=C(/N)Sc1ccccc1N)/C(C#N)=C(\N)Sc1ccccc1N [U0126]
- VSMC proliferation induced by leptin and insulin [1]: weak inhibition; also recorded: not inhibited
- effect on leptin-induced VSMC proliferation [1]: did not significantly alter
- effect on leptin-induced proliferation of murine VSMC [1]: did not significantly alter
- leptin-stimulated phosphorylation of MAPK ([2]; Example 1, data not shown): prevented
- leptin-stimulated phosphorylation of MAPK ([2]; Example 5, U0126 10 μM): prevented

Molecule: CO[C@H]1C[C@@H]2CC[C@@H](C)[C@@](O)(O2)C(=O)C(=O)N2CCCC[C@H]2C(=O)O[C@H]([C@H](C)C[C@@H]2CC[C@@H](O)[C@H](OC)C2)CC(=O)[C@H](C)/C=C(\C)[C@@H](O)[C@@H](OC)C(=O)[C@H](C)C[C@H](C)/C=C/C=C/C=C/1C [sirolimus, rapamycin]
- inhibition of leptin-stimulated phosphorylation of ERK1/2 ([2]; Example 2, rapamycin, leptin 100 ng/ml): did not inhibit
- inhibition of leptin-stimulated phosphorylation of Akt [3]: did not inhibit
- decrease of neointimal formation compared to vehicle ([4]; sirolimus 1 mg/kg/d): ~2 fold
- relative neointimal inhibition (RNI) ([4]; sirolimus 1 mg/kg/d, in the presence of leptin 0.4 mg/kg): 0.35
- relative neointimal inhibition (RNI) ([4]; sirolimus 1 mg/kg/d, without leptin, RNI 1 = total inhibition): 0.51
- decrease of neointimal formation compared to vehicle ([4]; sirolimus 4 mg/kg/d): ~5 fold
- relative neointimal inhibition (RNI) ([4]; sirolimus 4 mg/kg/d, in the presence of leptin 0.4 mg/kg): 0.67
- relative neointimal inhibition (RNI) ([4]; sirolimus 4 mg/kg/d, without leptin): 0.81
- decrease of neointimal formation compared to vehicle ([4]; sirolimus 9 mg/kg/d): ~5 fold and ~6 fold
- relative neointimal inhibition (RNI) ([4]; sirolimus 9 mg/kg/d, in the presence of leptin 0.4 mg/kg): 0.97
- relative neointimal inhibition (RNI) ([4]; sirolimus 9 mg/kg/d, without leptin): 0.85
- I/M (intima:media ratio) [4, 6]: 1.269 ± 0.254
- Intima [4, 6]: 0.024 ± 0.005
- Lumen [4, 6]: 0.010 ± 0.002
- Media [4, 6]: 0.019 ± 0.001
- TVA (total vessel area) [4, 6]: 0.056 ± 0.007
- I/M (intima:media ratio) [4, 7]: 0.654 ± 0.172
- Intima [4, 7]: 0.009 ± 0.001
- Lumen [4, 7]: 0.012 ± 0.004
- Media [4, 7]: 0.015 ± 0.002
- TVA (total vessel area) [4, 7]: 0.035 ± 0.006
- I/M (intima:media ratio) [4, 8]: 0.061 ± 0.015
- Intima [4, 8]: 0.001 ± 0.000
- Lumen [4, 8]: 0.014 ± 0.002
- Media [4, 8]: 0.017 ± 0.003
- TVA (total vessel area) [4, 8]: 0.031 ± 0.004
- I/M (intima:media ratio) [4, 9]: 0.334 ± 0.043
- Intima [4, 9]: 0.005 ± 0.001
- Lumen [4, 9]: 0.012 ± .003
- Media [4, 9]: 0.014 ± 0.001
- TVA (total vessel area) [4, 9]: 0.029 ± 0.003
- I/M (intima:media ratio) [4, 10]: 0.121 ± 0.027
- Intima [4, 10]: 0.001 ± 0.000
- Lumen [4, 10]: 0.012 ± 0.005
- Media [4, 10]: 0.015 ± 0.003
- TVA (total vessel area) [4, 10]: 0.028 ± 0.006
- I/M (intima:media ratio) [4, 11]: 0.094 ± 0.037
- Intima [4, 11]: 0.001 ± 0.000
- Lumen [4, 11]: 0.015 ± 0.002
- Media [4, 11]: 0.015 ± 0.002
- TVA (total vessel area) [4, 11]: 0.030 ± 0.004

Molecule: Insulin: insulin purchased from Calbiochem
- VSMC proliferation ([1]; insulin 10 or 100 nmol/L, 72 hours): induced a dose dependent increase in cell proliferation
- blood glucose levels ([5]; STZ mice, insulin 12-26 U/kg twice per day): reduce blood glucose levels to normal levels
- intima:media ratio ([5]; STZ+INS, insulin 12-26 U/kg i.p. twice per day 14 days, p<0.01): significant increase
